The target of this test is human P-selectin (Fc chimera) binding to PSGL-1 on U-937 monocytes (Homo sapiens, UniProt P16109). The experiment in a line: Flow cytometry: inhibition of P-selectin-Fc chimera binding to U-937 monocytes. It counts as cell-based. (In general: Flow cytometry measures light scatter and fluorescence of single cells or particles in a stream.)

Square brackets hold non-standard residues; d marks the D form. Peptide text beside a SMILES is read from it. * marks the point of attachment. X1 = CC(=O)N[C@@H]1[C@@H](O[C@@H]2O[C@H](CO)[C@H](O)[C@H](O)[C@H]2O)[C@@H](O)[C@@H](CO[C@@H]2O[C@H](CO)[C@@H](O[C@@H]3O[C@H](CO)[C@H](O)[C@H](O[C@]4(C(=O)O)C[C@H](O)[C@@H](NC(C)=O)[C@H]([C@H](O)[C@H](O)CO)O4)[C@H]3O)[C@H](O[C@@H]3O[C@@H](C)[C@@H](O)[C@@H](O)[C@@H]3O)[C@H]2NC(C)=O)O[C@@H]1*; Phe(4-CH2SO3H) = N[C@@H](Cc1ccc(CS(=O)(=O)O)cc1)C(=O)O

As a reminder, the IC50 is the concentration that gives 50% inhibition. Regarding `CC(=O)N[C@H]1[C@H](OC[C@H]2O[C@H](O[C@H](C)[C@H](NC(=O)[C@H](CCC(=O)O)NC(=O)[C@@H]3CCCN3C(=O)[C@H](CC(C)C)NC(=O)[C@H](Cc3ccccc3)NC(=O)[C@H](CC(=O)O)NC(=O)[C@H](Cc3ccc(CS(=O)(=O)O)cc3)NC(=O)[C@H](CC(=O)O)NC(=O)[C@H](CC(C)C)NC(=O)[C@H](Cc3ccc(CS(=O)(=O)O)cc3)NC(=O)[C@H](CCC(=O)O)NC(=O)[C@H](Cc3ccc(CS(=O)(=O)O)cc3)NC(=O)[C@H](CCC(=O)O)NC(=O)[C@H](CCCCN)NC(C)=O)C(=O)N[C@@H](CCC(=O)O)C(=O)N3CCC[C@H]3C(=O)N[C@@H](CC(C)C)C(=O)O)[C@H](NC(C)=O)[C@@H](O[C@@H]3O[C@H](CO)[C@H](O)[C@H](O)[C@H]3O)[C@H]2O)O[C@H](CO)[C@@H](O[C@@H]2O[C@H](CO)[C@H](O)[C@H](O[C@]3(C(=O)O)C[C@H](O)[C@@H](NC(C)=O)[C@H]([C@H](O)[C@H](O)CO)O3)[C@H]2O)[C@@H]1O[C@@H]1O[C@@H](C)[C@@H](O)[C@@H](O)[C@@H]1O` [GSnP-6] (Ac-KE[Phe(4-CH2SO3H)]E[Phe(4-CH2SO3H)]LD[Phe(4-CH2SO3H)]DFLPET(X1)EPL-OH; C-terminus assumed), the half-inhibitory concentration (IC50) turned out to be 11.1 µM.

These data come from article PMC11513618 (RSC Advances, 2024).
